# pKi: −log10 of the molar value.
# Experiments:
# [1] = system: cannabinoid receptors; assay: Mouse tetrad model, antagonistic effect against Win 55212-2; type: in vivo, Male NMRI mice; set-up: unit not given here; details: 5 mg/kg i.v. prior to Win 55212-2 in a dose of 1,25mg/kg i.v., mice
# Description: (§1) Substances with affinity for cannabinoid receptors are known to produce a wide range of pharmacological effects. It is also known that intravenous administration of a substance with affinity for cannabinoid receptors in mice produces analgesia , hypothermia, sedation and catalepsy. Individually, none of these effects can be considered as proof that a tested substance has affinity for cannabinoid-receptors, since all of these effects are common for various classes of centrally active agents. However, substances, which show all of these effects, i.e. substances that are active in this so-called tetrad model are considered to have affinity for the cannabinoid receptors. It has further been shown that cannabinoid receptor antagonists are higly effective in blocking the effects of a cannabinoid agonist in the mouse tetrad model.
# (§2) The tetrad model is described, for example, in the publication of A. C. Howlett et al, International Union of Pharmacology XXVII. Classification of Cannabinoid e cept σs, Pharmacol Rev 54, 161-202 , 2002 and David R. Compton et al., "In-vivo Characterization of a Specific Cannabinoid Receptor Antagonist (SR141716A) :Inhibition of Tetrahydrocannbinol- induced Responses and Apparent Agonist Activity", J. Pharmacol. Exp. Ther. 277, 2, 586-594, 1996. The corresponding parts of the description are hereby incorporated by reference.
# (§3) Male NMRI mice with a weight of 20-30 g (Harlan, Barcelona, Spain) are used in all of the following experiments.
# (§4) Before testing in the behavioral procedures given below, mice are acclimatized to the experimental setting. Pre-Treatment control values are determined for analgesia hot plate latency (in seconds), rectal temperature, sedation and catalepsy.
# (§5) In order to determine the agonistic activty of the substance to be tested, the mice are injected intravenously with the substance to be tested or the vehicle alone. 15 minutes after injection, latency in hot plate analgesia is measured. Rectal temperature, sedation and catalepsy are measured 20 minutes after injection.
# In order to determine the antagonistic activity the identical procedure is used as for the determination of the agonistic effects, but with the difference that the substance to be evaluated for its antagonistic activity is injectected 5 minutes before the intravenous injection of 1.25 mg/kg Win-55,212 a known cannabinoid-receptor agonist.
# (§6) The hot plate analgesia is determined according to the method described in Woolfe D. et al. "The evaluation of analgesic action of pethidine hydrochloride (Demerol)", J. Pharmacol. Exp. Ther. 80, 300-307,1944. The respective description is hereby incorporated by reference and forms part of the present disclosure.
# (§7) The mice are placed on a hot plate (Harvard Analgesimeter) at 55 ± 0.5 °C until they show a painful sensation by licking their paws or jumping and the time for these sensations to occur is recorded. This reading is considered the basal value (B). The maximum time limit the mice are allowed to remain on the hot plate in absence of any painful response is 40 seconds in order to prevent skin damage. This period is called the cut-off time (PC).
# (§8) Fifteen minuts after the administration of the substance to be tested, the mice are again placed on the hot plate and the afore described procedure is repeated. This period is called the post-treatment reading (PT).
# (§9) %MPEof Analgesia = (PT−B)/(PC−B) × 100 [formula]
# (§10) Sedation and ataxia is determined according to the method described in Desmet L. K. C. et al. "Anticonvulsive properties of Cinarizine and Flunarizine in Rats and Mice", Arzneim. -Forsch. (Frug Res) 25, 9, 1975. The respective description is hereby incorporated by reference and forms part of the present disclosure.
# (§11) The chosen scoring system is
# %of sedation = arithmetic mean/3 × 100 [formula] […]
# [2] = target: T1, CB2-Receptor (Homo sapiens, UniProt P34972); assay: In-vitro determination of affinity to CB2 receptor (radioligand [3H]-CP55940); type: binding
# T1 construct: purchased Receptor Biology, Inc
# Method: (§12) The in-vitro determination of the affinity of the substituted pyrazoline compounds to CB1/CB2-Rezeptors is carried out as described in the publication of Ruth A. Ross, Heather C. Brockie et al., "Agonist-inverse agonist characterization at CB1 and CB2 cannabinoid receptors of L-759633, L759656 and AM630", British Journal of Pharmacology, 126, 665-672, (1999), whereby the transfected human CB1 and CB2 receptors of Receptor Biology, Inc. are used. The radioligand used for both receptors is [^3H]-CP55940. The respective parts of the description is hereby incorporated by reference and forms part of the present disclosure. The affinity of the inventive substituted pyrazoline compounds to CB1/CB2 receptors was determined as described above.
# [3] = system: cannabinoid receptors; assay: Mouse tetrad model, agonistic effect; type: in vivo, Male NMRI mice; set-up: key to Agonistic effect D: Sedation: % of sedation = arithmetic mean score/3 × 100; details: 5 mg/kg i.v., mice
# Description: as §1, §2, §3, §4, §5, §6, §7, §8, §9, §10, §11
# %of sedation = arithmetic mean/3 × 100 [formula]
# Hypothermia is determined according to the method described in David R. Compton et al. "In-vivo Characterization of a Specific Cannabinoid Receptor Antagonist (SR141716A) Inhibition of Tetrahydrocannbinol- induced Responses and Apparent Agonist Activity", J. Pharmacol Exp Ther. 277 , 2, 586-594, 1996. The respective description is hereby incorporated by reference and forms part of the present disclosure. […]
# [4] = target: T2, CB1-Receptor (Homo sapiens, UniProt P21554); assay: In-vitro determination of affinity to CB1 receptor (radioligand [3H]-CP55940); type: binding
# T2 construct: purchased Receptor Biology, Inc
# Method: as §12, with “disclosure.” for “disclosure. The affinity of the inventive substituted pyrazoline compounds to CB1/CB2 receptors was determined as described above.”
# The affinity of the inventive substituted pyrazoline compounds to CB1/CB2 receptors was determined as described above.
# T1 sequence (P34972 whole entry): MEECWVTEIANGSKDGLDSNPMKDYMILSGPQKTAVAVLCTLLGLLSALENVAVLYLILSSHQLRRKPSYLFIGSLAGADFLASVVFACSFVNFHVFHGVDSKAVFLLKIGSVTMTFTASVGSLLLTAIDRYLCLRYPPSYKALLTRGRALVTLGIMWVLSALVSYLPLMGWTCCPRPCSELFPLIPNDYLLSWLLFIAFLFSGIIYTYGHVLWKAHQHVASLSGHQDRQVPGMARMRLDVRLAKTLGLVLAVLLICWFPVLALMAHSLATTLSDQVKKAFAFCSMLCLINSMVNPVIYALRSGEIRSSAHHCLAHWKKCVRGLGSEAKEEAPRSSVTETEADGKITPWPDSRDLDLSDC
# T2 sequence (P21554 whole entry): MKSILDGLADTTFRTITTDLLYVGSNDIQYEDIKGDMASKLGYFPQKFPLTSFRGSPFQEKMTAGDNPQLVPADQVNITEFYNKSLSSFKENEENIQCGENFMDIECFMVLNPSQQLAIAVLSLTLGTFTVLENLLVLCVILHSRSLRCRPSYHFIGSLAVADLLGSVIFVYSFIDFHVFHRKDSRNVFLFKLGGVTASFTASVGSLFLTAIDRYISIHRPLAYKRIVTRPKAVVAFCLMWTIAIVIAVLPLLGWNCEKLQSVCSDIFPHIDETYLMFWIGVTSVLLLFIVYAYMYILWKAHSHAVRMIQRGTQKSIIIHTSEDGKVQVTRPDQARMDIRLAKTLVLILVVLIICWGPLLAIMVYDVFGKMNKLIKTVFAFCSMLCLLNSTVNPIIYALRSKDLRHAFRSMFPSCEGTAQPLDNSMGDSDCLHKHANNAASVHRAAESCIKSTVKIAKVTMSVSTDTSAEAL
Structure (SMILES),Antagonistic Effect A: Hot-Plate test [1],Antagonistic Effect B: Hypothermia [1],Antagonistic Effect C: Catalepsy [1],Antagonistic Effect D: Sedation [1],pKi [2],Agonistic effect A: Hot-Plate test [3],Agonistic effect B: Hypothermia [3],Agonistic effect C: Catalepsy [3],Agonistic effect D: Sedation [3],pKi [4]
"O=C(NN1CCCCC1)C1=NN(c2ccc(Cl)cc2Cl)C(c2ccc(Cl)cc2)C1 (stereo not shown) [Example 1, N-piperidinyl-5-(4-chlorophenyl)-1-(2,4-dichlorophenyl)-4,5-dihydro-1H-pyrazole-3-carboxamide]",74,100,100,100,< 6.00,0,0,0,0,> 7.60
"O=C(C1=NN(c2ccc(Cl)cc2Cl)C(c2ccc(Cl)cc2)C1)N1CCCCC1 (stereo not shown) [Example 5, [5-(4-Chloro-phenyl)-1-(2,4-dichloro-phenyl)-4,5-dihydro-1H-pyrazol-3-yl]-piperidin-1-yl-methanone]",50,40,20,20,~6.00,0,50,0,0,
